Test results from ChEMBL document CHEMBL4033793, “Potent and Selective Inhibitors of Human Sirtuin 5” (J Med Chem, 2018).
Residues, ends and D or L forms follow the SMILES beside them. *: point of attachment. X13 = O=C(O)[C@@H](CC(=O)*)SCc1cccc([N+](=O)[O-])c1; X35 = O=C(O)[C@@H](CC(=O)*)SCc1ccc(C(F)(F)F)cc1; X46 = CC(C)(C)c1ccc(CS[C@@H](CC(=O)*)C(=O)O)cc1; X63 = O=C(O)[C@@H](CC(=O)*)SCc1ccc(Cl)c(Cl)c1; X72 = O=C(O)[C@@H](CC(=O)*)SCc1cccc2ccccc12; X11 = O=C(O)[C@H](CC(=O)*)SCc1cccc2ccccc12; X29 = COc1ccc(S[C@@H](CC(=O)*)C(=O)O)cc1OC; X22 = COc1ccc(CS[C@H](CC(=O)*)C(=O)O)cc1; X68 = Cc1ccc(S[C@H](CC(=O)*)C(=O)O)cc1C; X70 = O=C(O)[C@H](CC(=O)*)Sc1cccc(Cl)c1; X34 = O=C(O)[C@@H](CC(=O)*)Sc1ccccc1Cl; X54 = O=C(O)[C@H](CC(=O)*)SCCc1ccccc1; X5 = O=C(O)C(CC(=O)*)SCCc1ccccn1; Bz = O=C(c1ccccc1)*

What follows are compounds tested against NAD-dependent protein deacylase sirtuin-5, mitochondrial (Homo sapiens, UniProt Q9NXA8) (assay: Inhibition of human recombinant N-terminal Strep2-tagged SIRT5 expressed in Escherichia coli BL21 (DE3) using Abz-GVLK(glutaryl)AY(NO2)GV-NH2 as substrate in presence of NAD+ by fluorescence assay).
Sequence of NAD-dependent protein deacylase sirtuin-5, mitochondrial (Q9NXA8 whole entry): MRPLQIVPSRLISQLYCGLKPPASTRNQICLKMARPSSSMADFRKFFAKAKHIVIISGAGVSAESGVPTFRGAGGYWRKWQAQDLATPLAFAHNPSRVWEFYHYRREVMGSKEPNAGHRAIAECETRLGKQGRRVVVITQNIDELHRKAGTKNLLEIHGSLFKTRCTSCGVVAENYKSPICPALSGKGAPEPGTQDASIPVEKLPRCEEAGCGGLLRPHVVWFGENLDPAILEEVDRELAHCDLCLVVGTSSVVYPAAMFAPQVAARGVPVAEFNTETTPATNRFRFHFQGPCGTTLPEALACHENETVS

Row | IC50 [nM] | Ki [nM] | Structure (SMILES)
1 | 1110 | – | COc1ccc(CS[C@H](CC(=O)NCCCC[C@H](NC(=O)[C@H](CC(C)C)NC(=O)[C@@H](NC(=O)CNC(=O)c2ccccc2)C(C)C)C(=O)N[C@@H](CCC(=O)O)C(=O)N[C@@H](Cc2ccc(O)cc2)C(=O)NCC(=O)N[C@H](C(N)=O)C(C)C)C(=O)O)cc1 (Bz-GVLK(X22)EYGV-NH2)
2 | 1260 | – | Cc1ccc(S[C@H](CC(=O)NCCCC[C@H](NC(=O)[C@H](CC(C)C)NC(=O)[C@@H](NC(=O)CNC(=O)c2ccccc2)C(C)C)C(=O)N[C@@H](CCC(=O)O)C(=O)N[C@@H](Cc2ccc(O)cc2)C(=O)NCC(=O)N[C@H](C(N)=O)C(C)C)C(=O)O)cc1C (Bz-GVLK(X68)EYGV-NH2)
3 | 780 | – | CC(C)C[C@H](NC(=O)[C@@H](NC(=O)CNC(=O)c1ccccc1)C(C)C)C(=O)N[C@@H](CCCCNC(=O)C[C@@H](SCc1ccc(Cl)c(Cl)c1)C(=O)O)C(=O)N[C@@H](CCC(=O)O)C(=O)N[C@@H](Cc1ccc(O)cc1)C(=O)NCC(=O)N[C@H](C(N)=O)C(C)C (Bz-GVLK(X63)EYGV-NH2)
4 | 120 | – | CC(C)C[C@H](NC(=O)[C@@H](NC(=O)CNC(=O)c1ccccc1)C(C)C)C(=O)N[C@@H](CCCCNC(=O)C[C@H](Sc1cccc(Cl)c1)C(=O)O)C(=O)N[C@@H](CCC(=O)O)C(=O)N[C@@H](Cc1ccc(O)cc1)C(=O)NCC(=O)N[C@H](C(N)=O)C(C)C (Bz-GVLK(X70)EYGV-NH2)
5 | 350 | – | CC(=O)N[C@@H](CC(C)C)C(=O)N[C@@H](CCCCNC(=O)C[C@H](Sc1ccc2ccccc2c1)C(=O)O)C(=O)N[C@@H](C)C(N)=O
6 | 154000 | – | CCCCNC(=O)C[C@H](Sc1ccc2ccccc2c1)C(=O)O
7 | 6970 | – | CC(C)C[C@H](NC(=O)[C@@H](NC(=O)CNC(=O)c1ccccc1)C(C)C)C(=O)N[C@@H](CCCCNC(=O)CC(SCCc1ccccn1)C(=O)O)C(=O)N[C@@H](CCC(=O)O)C(=O)N[C@@H](Cc1ccc(O)cc1)C(=O)NCC(=O)N[C@H](C(N)=O)C(C)C (stereo partly drawn) (Bz-GVLK(X5)EYGV-NH2)
8 | 3100 | – | CC(C)C[C@H](NC(=O)[C@@H](NC(=O)CNC(=O)c1ccccc1)C(C)C)C(=O)N[C@@H](CCCCNC(=O)C[C@@H](Sc1ccccc1Cl)C(=O)O)C(=O)N[C@@H](CCC(=O)O)C(=O)N[C@@H](Cc1ccc(O)cc1)C(=O)NCC(=O)N[C@H](C(N)=O)C(C)C (Bz-GVLK(X34)EYGV-NH2)
9 | 7400 | – | CC(=O)N[C@@H](CCCCNC(=O)C[C@H](Sc1ccc2ccccc2c1)C(=O)O)C(N)=O
10 | 793 | – | CC(C)C[C@H](NC(=O)[C@@H](NC(=O)CNC(=O)c1ccccc1)C(C)C)C(=O)N[C@@H](CCCCNC(=O)C[C@H](SCc1ccc(C(C)(C)C)cc1)C(=O)O)C(=O)N[C@@H](CCC(=O)O)C(=O)N[C@@H](Cc1ccc(O)cc1)C(=O)NCC(=O)N[C@H](C(N)=O)C(C)C (Bz-GVLK(X46)EYGV-NH2)
11 | 90000 | – | CNC(=O)c1cccc(NC(=O)C[C@H](Sc2ccc3ccccc3c2)C(=O)O)c1
12 | 207 | – | CC(C)C[C@H](NC(=O)[C@@H](NC(=O)CNC(=O)c1ccccc1)C(C)C)C(=O)N[C@@H](CCCCNC(=O)C[C@@H](SCc1cccc2ccccc12)C(=O)O)C(=O)N[C@@H](CCC(=O)O)C(=O)N[C@@H](Cc1ccc(O)cc1)C(=O)NCC(=O)N[C@H](C(N)=O)C(C)C (Bz-GVLK(X72)EYGV-NH2)
13 | 2200 | – | CC(C)C[C@H](NC(=O)[C@@H](NC(=O)CNC(=O)c1ccccc1)C(C)C)C(=O)N[C@@H](CCCCNC(=O)C[C@@H](SCc1ccc(C(F)(F)F)cc1)C(=O)O)C(=O)N[C@@H](CCC(=O)O)C(=O)N[C@@H](Cc1ccc(O)cc1)C(=O)NCC(=O)N[C@H](C(N)=O)C(C)C (Bz-GVLK(X35)EYGV-NH2)
14 | 2740 | – | CC(C)C[C@H](NC(=O)[C@@H](NC(=O)CNC(=O)c1ccccc1)C(C)C)C(=O)N[C@@H](CCCCNC(=O)C[C@H](SCCc1ccccc1)C(=O)O)C(=O)N[C@@H](CCC(=O)O)C(=O)N[C@@H](Cc1ccc(O)cc1)C(=O)NCC(=O)N[C@H](C(N)=O)C(C)C (Bz-GVLK(X54)EYGV-NH2)
15 | 15.4 | 7 | CC(C)C[C@H](NC(=O)[C@@H](NC(=O)CNC(=O)c1ccccc1)C(C)C)C(=O)N[C@@H](CCCCNC(=O)C[C@H](SCc1cccc2ccccc12)C(=O)O)C(=O)N[C@@H](CCC(=O)O)C(=O)N[C@@H](Cc1ccc(O)cc1)C(=O)NCC(=O)N[C@H](C(N)=O)C(C)C (Bz-GVLK(X11)EYGV-NH2)
16 | 2670 | – | CC(C)C[C@H](NC(=O)[C@@H](NC(=O)CNC(=O)c1ccccc1)C(C)C)C(=O)N[C@@H](CCCCNC(=O)C[C@@H](SCc1cccc([N+](=O)[O-])c1)C(=O)O)C(=O)N[C@@H](CCC(=O)O)C(=O)N[C@@H](Cc1ccc(O)cc1)C(=O)NCC(=O)N[C@H](C(N)=O)C(C)C (Bz-GVLK(X13)EYGV-NH2)
17 | 326 | – | COc1ccc(S[C@@H](CC(=O)NCCCC[C@H](NC(=O)[C@H](CC(C)C)NC(=O)[C@@H](NC(=O)CNC(=O)c2ccccc2)C(C)C)C(=O)N[C@@H](CCC(=O)O)C(=O)N[C@@H](Cc2ccc(O)cc2)C(=O)NCC(=O)N[C@H](C(N)=O)C(C)C)C(=O)O)cc1OC (Bz-GVLK(X29)EYGV-NH2)
